Data from patent publication US6133264A, “Carbostyril derivatives for inhibiting skin erythema and/or skin pigmentation” (Otsuka Pharmaceutical Co., Ltd., priority 1997, dated 2000).
Structures can show the parent of a compound that is named as a salt.

Tests used:
[1] = DPPH free radical extinction activity test; format: biochemical; details: relative to α-tocopherol (= 2); 5 μl of 10 mM test compound, 30° C., 30 minutes, pH 5.5 buffer, 517 nm
Method: (1) DPPH free radical extinction activity test
The test was conducted by procedures according to the method by Marsden S. Blois [Nature, Vol. […], 1199-1200, (1958)].
Into 0.5 ml of 200 mM of acetic acid buffer solution (pH 5.5) were added 0.5 ml of distilled water, 0.5 ml of ethanol and 5 μl of 10 mM of the test compound solution (an ethanol solution, a dimethylformamide solution or an aqueous solution), and stirred at 30° C. for 5 minutes. To this mixed solution was added 1.5 ml of an ethanol solution of 250 μM of 1,1-diphenyl-2-picrylhydrazyl (DPPH), this mixture was incubated at 30° C. for 30 minutes. After the incubation, the optical absorbance (at 517 nm) of this reaction mixture was measured, and the number of captured free radicals of DPPH was calculated from the ratio of optical absorbance of test compound and that of α-tocopherol (standard substance: the number of captured free radicals: 2) by the following formula: […]
Number of captured free radicals of DPPH performed by test
(A): optical absorbance of the test sample, and
(B): optical absorbance of α-tocopherol].

[2] = system: skin reaction (erythema and edema); experiment: Skin sensitization test (Adjuvant and strip test), photosensitization; format: in vivo, Albino guinea pigs (Hertley strain, female); details: 3% test compound solution, open-coated; observed 24 hours and 48 hours; [(G)/(H)]×100
Description: (4) Skin sensitization test [Adjuvant and strip test: J. Invest. Dermatol., Vol. 76, pp 498-501, (1981)]
This test was used as experimental model for evaluating the existence of toxicity of photosensitization to the skin performed by the test compounds.
(i) Procedure for inducing photosensitization
Albino guinea pigs (Hertley strain, female, age of 5-6 weeks) were used. Hairs of the nuchal area of the guinea pig were shaved, and designated the test sample coating section having 2×4 cm in size. At the four corners of the test sample coating section, 0.1 ml each of E-FCA (an emulsion consisting of the same volume each of Freund's complete adjuvant with sterilized distilled water) were intracutaneouly injected. The coating section was subjected to striping repeatedly by use of Cellophane tape until the section turned to slightly erythema, then 0.1 ml of test compound solution (aqueous or 50% ethanol-water solution) of 3% in concentration was open-coated on the section. 30 Minutes after the coating, UV rays of about 10 J/cm^2 in dosage was irradiated by use of a fluorescent lamp of healthy light (TOSHIBA FL-20S-BLB) as a light source. The above-mentioned procedure was carried out once a day, and continuously conducted for 5 days, provided that E-FCA was administered only on the first day.
(ii) Procedure for introducing sensitization
3 Weeks after the beginning of induction period of photosensitization, the covering hairs on the back of guinea pig were shaved, and determined a circular section, having 1.5 cm in diameter, for coating test samples, and 20 μl of test compound solution (aqueous or 50% ethanol-water solution) of 3% in concentration was open-coated on the section. The test sample coated section was observed 24 hours and 48 hours, and examined existences of skin reaction (erythema and edema). In case of skin reaction was appeared, then it was determined as positive reaction in skin sensitization which was defined as a positive ratio (%) calculated from the following formula.
Positive ratio (%)=[(G)/(H)]×100
(G): Number of positive reactions in skin sensitization and
(H): Number of total animal tests].

skin erythema (sunburn) = experiment: Effect for preventing skin sunburn caused by UV rays irradiation (in vivo); set-up: species or system albino guinea pig (Hartley strain, female); details: 3% test compound solution, 24 hours after UV irradiation; for (C): Δa value of test section of skin coated with test compound solution: 10 μl; for inhibition in vivo at 3 %: Cavia porcellus, light or radiation study, topical, 24 h, read-out: Inhibitory ratio of skin erythema (%); for inhibition in vivo at 3 % / Inhibitory ratio of skin erythema (%): {1-[(C)/(D)]}×100
Method: (2) Effect for preventing skin sunburn caused by UV rays irradiation (in vivo)
This test is an experimental model of quantitative evaluation of effect for preventing skin sunburn, caused by UV rays irradiation, performed by the test compound. [Test was conducted by a modified method according to the procedures of J. Dermatol. Vol. 17, pp. 595-598, (1990).]
Hairs on the back of an albino guinea pig (Hartley strain, female, age of 7-8 weeks) were shaved by use of an electric hair clipper and an electric shaver. Next day, the guinea pig was fixed on a Bowlman cage, a piece of shading tape (a plaster for patch test) having 4 circular holes of 1.5 cm in diameter was put on the shaved portion of the skin, and predetermined 2 sections of UV rays irradiation. One section (reference section) was coated with 10 μl of a solvent (water or 50% ethanol-water solution). Another section (test section) was coated with 10 μl of 3% test compound solution (aqueous or 50% ethanol-water solution). 30 Minutes after the coating, UV rays of 1.3-1.5 mW/cm^2 in strength was irradiated for 30 minutes by use of a fluorescent lamp of healthy light (TOSHIBA FL-20.cndot.SE) as a light source. 24 Hours after the irradiation, the reference section (coated with the solvent only) and the test section (coated with test compound solution) were observed respectively, and the erythrochromia (Δa value) on both reference section and test section were measured by use of a color difference meter (OFC-300A Type, mfd. by NIHON DENSHOKU KOGYO CO., LTD). The inhibitory ratio of skin erythema (sunburn) performed by the test compound was calculated from the following formula.
Inhibitory ratio of skin erythema (sunburn) (%)={1-[(C)/(D)]}×100
(C): Δa Value of test section of skin coated with test compound solution,
(D): Δa Value of reference section of skin coated with the solvent only, and
Δa value: difference of skin erythema on the portion irradiated with UV rays].

skin pigmentation = experiment: Effect for preventing skin pigmentation caused by UV rays irradiation; format: in vivo, colored guinea pig (A-1 strain, female); details: 3% test compound solution, 14 days after UV irradiation; for (E): ΔL value of brightness of the skin coated with test compound solution (test section): 10 μl/cm^2; for Inhibitory ratio of skin pigmentation (%): {1-[(E)/(F)]}×100
Method: (3) Effect for preventing skin pigmentation caused by UV rays irradiation This is an experimental model of quantitative evaluation of effect for preventing skin pigmentation caused by UV rays irradiation performed by test compound. [Test was conducted by a modified method according to procedures of J. Dermatol. Vol. 17, pp. 595-598,(1990).] Hairs on the back of a colored guinea pig (A-1 strain, female, age of 8-10 weeks) were shaved and the body of guinea pig was fixed on a Bowlman cage, and predermined 2 sections of UV rays irradiation. […] The inhibitory ratio of the skin pigmentation (%) performed by the test compound was calculated from the following formula. […] [wherein (E): ΔL value of brightness of the skin coated with test compound solution (test section), (F): ΔL value of brightness of the skin coated the solvent (reference section), and ΔL value: difference of brightness of the skin between the portion without irradiated and the portion irradiated with UV rays].

[3] = assigned value of the standard α-tocopherol; cited from earlier work

SMILES	Number of captured free radicals of DPPH [1]	Positive ratio (%) [2] [%]	(C): Δa value of test section of skin coated with test compound solution (skin erythema (sunburn))	inhibition in vivo at 3 % (skin erythema (sunburn)) [%]	(E): ΔL value of brightness of the skin coated with test compound solution (test section) (skin pigmentation)	Inhibitory ratio of skin pigmentation (%) (skin pigmentation)	Inhibitory ratio of skin erythema (%) (skin erythema (sunburn))	number of captured free radicals (standard substance) [3]
CCN(CC)Cc1cc(C)c2c(c1O)CCC(=O)N2 [Example 9, 5-Hydroxy-6-diethylaminomethyl-8-methyl-3,4-dihydro-2(1H)-quinolinone]	1	0	4.69 ± 1.62	38				
CCN(CC)Cc1ccc2c(c1O)CCC(=O)N2 [Example 13, 6-diethylaminomethyl-5-hydroxy-3,4-dihydrocarbostyril]	1	0	3.93 ± 0.92	42				
C=CCOc1cc(CN(C)C)c(O)c2c1NC(=O)CC2 [Example 18, 8-allyloxy-3,4-dihydro-5-hydroxy-6-dimethyl-aminomethyl-2(1H)-quinolinone hydrochloride]	1.5	0	3.87 ± 2.45	51	-3.53 ± 1.24	49		
Cl.O=c1ccc2c(CN3CCCC3)c(O)ccc2[nH]1 [Example 22, 6-hydroxy-5-(1-pyrrolidinyl)methyl-2(1H)-quinolinone hydrochloride]	1.5	0	5.51 ± 2.32	37				
Cc1cc2c(c(CN3CCCC3)c1O)NC(=O)CC2 [Example 25]	1	0	3.31 ± 2.00	64	-5.02 ± 2.02	38		
C=CCOc1cc(CN2CCCCC2)c(O)c2c1NC(=O)CC2 [Example 28, 8-allyloxy-3,4-dihydro-5-hydroxy-6-(1-piperidinyl)methyl-2(1H)-quinolinonehydrochloride]	2	0	1.13 ± 0.58		-4.51 ± 1.87	43	78	
CCCOc1cc(CN2CCCCC2)c(O)c2c1NC(=O)CC2.Cl [Example 30, 3,4-dihydro-8-propyloxy-5-hydroxy-6-(1-piperidinyl)methyl-2(1H)-quinolinone hydrochloride]	2	0	4.73 ± 1.94	40	-3.40 ± 1.18	50		
C=CCOc1cc(CN2CCCCC2)c(O)c2c1N(CC=C(C)C)C(=O)CC2 [Example 32]	1	0	2.17 ± 0.97	64	-3.37 ± 2.36	42		
C=CCOc1cc(CN2CCCCC2)c(O)c2c1NC(=O)CC2 [Example 33]	1.5	0	3.96 ± 1.02		-2.61 ± 2.98	55	49	
COc1cc(CN(C)C)c(O)c2c1NC(=O)CC2.Cl [Example 35, 6-(dimethylaminomethyl)-3,4-dihydro-5-hydroxy-8-methoxy-2(1H)-quinolinone hydrochloride]	1.5	0	3.61 ± 2.91	51	-4.44 ± 2.17	35		
O=C1CCc2c(O)c(CN3CCCC3)cc(OC3CCCCO3)c2N1 (stereo not shown) [Example 47]	3.5	0	0.88 ± 0.29	76	-4.89 ± 1.24	38		
Cc1c(C)c2c(c(C)c1O)CCC(C)(CCCC(C)CCCC(C)CCCC(C)C)O2 (stereo not drawn) [α-tocopherol]								2
